What all share (assay type): cell-based, human
Assay [1] concerns WM852 (wildtype BRAF melanoma). The assay is described as follows: 3H-thymidine cell proliferation assay, WM852. The settings on record: 100 nM siRNA. The method, then: (§1) The MMP-1 siRNA (5′-gagcaagatgtggacttag-3′) and scrambled siRNA (5′-gattcaggtgtagaacgag-3′) sequences were designed using Dharmacon siDESIGN Center. Transfection of the siRNAs was performed using 2 μL of DharmaFECT 1 transfection reagent (Dharmacon) and 100 nM of MMP-1 siRNA and scrambled siRNA for the WM852 cell line and 250 nM for the WM793 cell line. Cells were collected and pelleted 24 hours after transfection for RNA extraction using the RNeasy Mini Kit ([…]), cDNA production by using SUPERSCRIPT First-Strand Synthesis System for RT-PCR according to manufacturer's instructions (Invitrogen), and semi-quantitative duplex PCR to confirm MMP-1 knockdown.
(§2) WM852 and WM793 cell lines were seeded at 15,000 cells per well into a 96-well tissue culture plate (Becton Dickinson) 24 hours after siRNA transfection. Twenty-two hours later, 10 μL of 0.1 μCi/μL ^3H-thymidine (Perkin Elmer) was added to each well. After 4 hours, the cells were washed with PBS and 50 μL of trypsin was added into each well for 10 minutes. The trypsinized cells were harvested to a filtermat using the Perkin Elmer FilterMate cell harvester (Perkin Elmer). The dried filtermat was sealed in a sample bag with 4 mL of scintillation fluid and then read on a Perkin Elmer 1450 Microbeta Liquid Scintillator (Perkin Elmer).

The test system of assay [2] is MMP-1. The assay is described as follows: MMP-1 ELISA of cell culture media after siRNA gene silencing. The method, then: Cell culture media with no serum was added to the cell lines. After 72 hours, the media was collected and the protein concentration was determined using the Bio-Rad Protein Assay reagent (Bio-Rad Laboratories). The amount of human MMP-1 pro and active forms was determined using the RAYBIO Human MMP-1 ELISA kit (RayBiotech, Inc.) following the manufacturer's instructions. MMP-1 activity in the collected media was measured using the SensoLyte Plus™ 520 MMP-1 Assay Kit (AnaSpec) following the manufacturer's protocol including the step to add 4-aminophenylmecuric acetate (APMA) to the samples in order to activate all the pro-MMP-1.
(In general: An ELISA detects its analyte on a solid surface through an enzyme-linked reagent.)

In assay [3] the test system is WM793 (BRAF V600E melanoma). The assay is described as follows: 3H-thymidine cell proliferation assay, WM793. The settings on record: BRAF mutant melanoma (WM793), 250 nM siRNA. The method, then: as §1, §2
Assay [4] has as its system MMP-1. Put plainly: Semi-quantitative duplex RT-PCR of MMP-1 after siRNA gene silencing. The settings on record: 24 hours after transfection. As to the method:
as §1
Semi-quantitative duplex RT-PCR was performed by a MJ Research Programmable Thermal Controller (PTC-100, Inc.) and the amplified products were separated on an agarose gel. The duplex PCR utilized 20 by oligonucleotides to amplify regions of ˜350 by from MMP-1. Optimization experiments were conducted to determine a favorable primer concentration for the GAPDH internal control. The following primer oligonucleotides were used: MMP-1 forward (5′-[…]-3′), MMP-1 reverse (5′-[…]-3′), GAPDH forward (5′-[…]-3′), and GAPDH reverse (5′-[…]-3′). The PCR was carried out in a total volume of 25 uL, containing 2.5 uL of 10×PCR Buffer (containing 15 mM MgC12), 0.2 mM dNTPs, and 0.3 ul AmpliTaq Gold DNA Polymerase (Applied Biosystems). […]

The values below come from US20110091377A1, “BIOMARKERS FOR MELANOMA” (THE JOHNS HOPKINS UNIVERSITY, priority 2007, published 2011).

Consider 5′-gagcaagatgtggacttag-3′ [MMP-1 siRNA], for which the “cell growth inhibition versus control siRNA” value in assay [1] stood at 17%; in assay [3] it was 80%. Moreover, the “secreted MMP-1 protein levels from conditioned media” value in assay [2] (WM793, BRAF V600E) was “efficiently downregulated”; in assay [2] (WM852, wildtype BRAF), “efficiently downregulated”. The MMP-1 transcript levels entry in assay [4] (WM793, BRAF V600E, 250 nM siRNA) is given as “efficiently downregulated”; in assay [4] (WM852, wildtype BRAF, 100 nM siRNA), “efficiently downregulated”.
